Reference: patent US10442796B2, “2,3,5-substituted thiophene compound as protein kinase inhibitor” (KOREA INSTITUTE OF SCIENCE AND TECHNOLOGY, priority 2016, dated 2019)
Positions count from the first letter of the chain named. Where a name gives a salt, the structure may show the parent alone.

Legend:
[1] = biological target: T1, FLT3-ITD-F691L Ba/F3 cells (Homo sapiens, UniProt P36888, F691L, cells depend on it, form not given); assay: Growth inhibitory activity against Ba/F3 cell line; format: cell-based; conditions: Ba/F3 expressing FLT3-ITD-F691L; 72 hours; cell titer glo; read-out: IC50 (uM) FLT3-ITD-F691L
T1 sequence (P36888 1-993 F691L): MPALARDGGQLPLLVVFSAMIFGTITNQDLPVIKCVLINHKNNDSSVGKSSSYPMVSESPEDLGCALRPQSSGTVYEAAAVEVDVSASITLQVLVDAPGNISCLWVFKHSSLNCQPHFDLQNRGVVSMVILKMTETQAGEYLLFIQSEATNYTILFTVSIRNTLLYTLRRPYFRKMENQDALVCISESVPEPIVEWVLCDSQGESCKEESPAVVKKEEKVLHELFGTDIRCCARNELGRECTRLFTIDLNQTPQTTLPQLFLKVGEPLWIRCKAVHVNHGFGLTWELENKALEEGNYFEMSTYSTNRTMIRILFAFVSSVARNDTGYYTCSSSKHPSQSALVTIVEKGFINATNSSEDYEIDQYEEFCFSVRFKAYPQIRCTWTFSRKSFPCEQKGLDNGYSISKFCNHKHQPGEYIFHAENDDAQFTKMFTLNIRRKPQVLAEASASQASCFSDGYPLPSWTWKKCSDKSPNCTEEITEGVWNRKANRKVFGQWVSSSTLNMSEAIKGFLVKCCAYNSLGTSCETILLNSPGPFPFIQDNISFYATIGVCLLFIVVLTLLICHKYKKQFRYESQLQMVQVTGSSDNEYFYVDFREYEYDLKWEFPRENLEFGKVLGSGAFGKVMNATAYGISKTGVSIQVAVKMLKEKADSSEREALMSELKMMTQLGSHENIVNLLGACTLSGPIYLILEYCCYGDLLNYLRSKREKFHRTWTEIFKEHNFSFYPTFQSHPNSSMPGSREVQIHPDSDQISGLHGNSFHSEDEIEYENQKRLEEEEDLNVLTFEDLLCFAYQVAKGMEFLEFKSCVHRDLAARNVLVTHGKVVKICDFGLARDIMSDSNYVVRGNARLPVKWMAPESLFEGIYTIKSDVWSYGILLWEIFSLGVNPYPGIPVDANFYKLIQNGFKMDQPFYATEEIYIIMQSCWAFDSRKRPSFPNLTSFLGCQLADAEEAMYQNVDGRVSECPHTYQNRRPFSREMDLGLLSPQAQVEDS
Method: (§1) A Ba/F3 cell line expressing an FLT3 mutation gene was cultured in a culture solution including 90% RPMI, 10% FBS, and an antibiotic (Welgene). 100 uL of the Ba/F3 cell line was put into each of 5,000 wells of a TC-treated 96 well plate (SPL), and then 1 uL of a test compound diluted in dimethylsulfoxide (diluted for each 3 paint from a concentration of 1 mM, total 10 concentrations) was each injected thereinto. Thereafter, the resulting cell lines were incubated in a cell culture incubator for 72 hours. 50 uL of a cell titer glo (Promega) solution was added thereto, the resulting mixture was stored at room temperature for 10 minutes, and then the light emission intensity was measured by using a reader (Envision, PerkinElmer). The light emission intensity was shown as a graph for each final concentration of the test compound, and the GI50 value was obtained by using a Prism 5.0 (GraphPad) software.

[2] = biological target: T2, FLT3-ITD-F691L-D835Y Ba/F3 cells (Homo sapiens, UniProt P36888, F691L/D835Y, cells depend on it, form not given); assay: Growth inhibitory activity against Ba/F3 cell line; format: cell-based; conditions: Ba/F3 expressing FLT3-ITD-F691L-D835Y; 72 hours; cell titer glo; read-out: IC50 (uM) FLT3-ITD-F691L-D835Y
T2 sequence (P36888 1-993 F691L/D835Y): T1 sequence (P36888 1-993 F691L) with D835Y
Method: as §1

SMILES	GI50 [1] [µM]	GI50 [2] [µM]
NC(=O)Nc1cc(CCc2cccc(F)c2)sc1C(=O)N[C@H]1CCCNC1 [Example 53]	1.39	0.149
NC(=O)Nc1cc(C#Cc2ccnc(F)c2)sc1C(=O)N[C@H]1CCCNC1 [Example 21, (S)-5-((2-fluoropyridin-4-yl)ethynyl)-N-(piperidin-3-yl)-3-ureidothiophene-2-carboxamide]	0.087	< 0.004
NC(=O)Nc1cc(C#Cc2ccncc2)sc1C(=O)N[C@H]1CCCNC1 [Example 4, (S)—N-(piperidin-3-yl)-5-(pyridin-4-ylethynyl)-3-ureidothiophene-2-carboxamide]	1.1	0.01
CC(=O)N1CCC(n2cc(C#Cc3cc(NC(N)=O)c(C(=O)N[C@H]4CCCCNC4)s3)cn2)CC1 [Example 49]	0.616	0.031
CC(C)n1cc(C#Cc2cc(NC(N)=O)c(C(=O)N[C@H]3CCCCNC3)s2)cn1 [Example 44, (S)—N-(azepan-3-yl)-5-((1-isopropyl-1H-pyrazol-4-yl)ethynyl)-3-ureidothiophene-2-carboxamide trifluoroacetate]	0.214	0.004
Cn1cc(CCc2cc(NC(N)=O)c(C(=O)N[C@H]3CCCCNC3)s2)cn1 [Example 52, (S)—N-(azepan-3-yl)-5-(2-(1-methyl-1H-pyrazol-4-yl)ethyl)-3-ureidothiophene-2-carboxamide trifluoroacetate]	> 100	> 4
CS(=O)(=O)N1CCC(n2cc(C#Cc3cc(NC(N)=O)c(C(=O)N[C@H]4CCCCNC4)s3)cn2)CC1 [Example 47, (S)—N-(azepan-3-yl)-5-((1-(1-(methylsulfonyl)piperidin-4-yl)-1H-pyrazol-4-yl)ethynyl)-3-ureidothiophene-2-carboxamide trifluoroacetate]	0.645	0.04
NC(=O)Nc1cc(C#Cc2cccc(F)c2)sc1C(=O)N[C@H]1CCCNC1 [Example 22, (S)-5-((3-fluorophenyl)ethynyl)-N-(piperidin-3-yl)-3-ureidothiophene-2-carboxamide]	0.032	< 0.001

More lines, in order of falling GI50 [1], values ahead:

GI50 [1] [µM]	GI50 [2] [µM]	SMILES
0.089	< 0.004	NC(=O)Nc1cc(C#Cc2ccc([N+](=O)[O-])cc2)sc1C(=O)N[C@H]1CCCNC1 [Example 7, (S)-5-((4-nitrophenyl)ethynyl)-N-(piperidin-3-yl)-3-ureidothiophene-2-carboxamide]
0.083	0.004	NC(=O)Nc1cc(C#Cc2ccsc2)sc1C(=O)N[C@H]1CCCCNC1 [Example 48, (S)—N-(azepan-3-yl)-5-(thiophen-3-ylethynyl)-3-ureidothiophene-2-carboxamide trifluoroacetate]
0.078	0.007	Cn1cc(C#Cc2cc(NC(N)=O)c(C(=O)N[C@H]3CCCCNC3)s2)cn1 [Example 41, (S)—N-(azepan-3-yl)-5-((1-methyl-1H-pyrazol-4-yl)ethynyl)-3-ureidothiophene-2-carboxamide trifluoroacetate]
0.075	0.003	NC(=O)Nc1cc(C#Cc2cnn(C3CCOCC3)c2)sc1C(=O)N[C@H]1CCCCNC1 [Example 46, (S)—N-(azepan-3-yl)-5-((1-(tetrahydro-2H-pyran-4-yl)-1H-pyrazol-4-yl)ethynyl)-3-ureidothiophene-2-carboxamide trifluoroacetate]
0.005	< 0.001	NC(=O)Nc1cc(C#Cc2ccc(F)cc2)sc1C(=O)N[C@H]1CCCNC1 [Example 9, (S)-5-((4-fluorophenyl)ethynyl)-N-(piperidin-3-yl)-3-ureidothiophene-2-carboxamide]
0.004	< 0.001	N#Cc1ccc(C#Cc2cc(NC(N)=O)c(C(=O)N[C@H]3CCCNC3)s2)cc1 [Example 11, (S)-5-((4-cyanophenyl)ethynyl)-N-(piperidin-3-yl)-3-ureidothiophene-2-carboxamide]
